According to patent publication US9339541B2, “Thiophosphate nucleosides for the treatment of HCV” (priority 2013, dated 2016):

Test system: HCV genotype 1b replicon
Assay type: cell-based
Conditions: Huh-7-derived cell line (Zluc), HCV genotype 1b replicon with luciferase reporter, 72 hours of incubation

Row | SMILES | EC50
1 | CCOc1nc(N)nc2c1ncn2[C@@H]1O[C@H](COP(=O)(N[C@@H](C)C(=O)OC(C)C)SCC2NC(=O)NC2=O)[C@@H](O)[C@@]1(C)F (single isomer, unassigned) [3b Diastereomer 1] | 1 to 10 µM
2 | CC(C)OC(=O)[C@H](C)NP(=O)(OC[C@H]1O[C@@H](n2ccc(=O)[nH]c2=O)[C@](C)(O)[C@@H]1O)SCC1NC(=O)NC1=O (single isomer, unassigned) [4b Diastereomer 1] | > 10 µM
3 | CC(C)OC(=O)[C@@H](C)NP(=O)(OC[C@H]1O[C@@H](n2ccc(=O)[nH]c2=O)[C@](C)(Cl)[C@@H]1O)SC1CCCC1 (single isomer, unassigned) [8a Diastereomer 1] | > 10 µM
4 | CC(C)OC(=O)[C@H](C)NP(=O)(OC[C@H]1O[C@@H](n2ccc(=O)[nH]c2=O)[C@](C)(Cl)[C@@H]1O)SC1CCCC1 (single isomer, unassigned) [8b Diastereomer 1] | 1 to 10 µM
5 | COC(=O)N[C@@H](CSP(=O)(N[C@@H](C)C(=O)OC(C)C)OC[C@H]1O[C@@H](n2cnc3c(OC)nc(N)nc32)[C@](C)(O)[C@@H]1O)C(=O)OC(C)C (stereo partly drawn) [Compound 2by] | 1 to 10 µM
6 | CCOC(=O)[C@H](C)NP(=O)(OC[C@H]1O[C@@H](n2cnc3c(OCC)nc(N)nc32)[C@](C)(O)[C@@H]1O)SCC (stereo partly drawn) [Compound 10b] | ≤ 0.25 µM
7 | CCOC(=O)[C@H](C)NP(=O)(OC[C@H]1O[C@@H](n2cnc3c(=O)[nH]c(N)nc32)[C@](C)(O)[C@@H]1O)SCC (stereo partly drawn) [Compound 13b] | 1 to 10 µM
8 | CCOC(=O)CCSP(=O)(N[C@@H](C)C(=O)OC(C)C)OC[C@H]1O[C@@H](n2ccc(=O)[nH]c2=O)[C@](C)(O)[C@@H]1O (stereo partly drawn) [Compound 15b] | > 10 µM
9 | COC(=O)CSP(=O)(N[C@@H](C)C(=O)OC(C)C)OC[C@H]1O[C@@H](n2ccc(=O)[nH]c2=O)[C@](C)(Cl)[C@@H]1O (stereo partly drawn) [Compound 17b] | > 10 µM
